Data published in publication PMC7376718, “Flavonoids isolated from the South African weed Chromolaena odorata (Asteraceae) have pharmacological activity against uropathogens” (BMC Complementary Medicine and Therapies, 2020).
In brackets after ≈: the same amount, converted by molar mass. Like-named read-outs stand apart in the source and are kept apart here.

Columns and labels:
Cytotoxicity, MTT assay = format: cell-based; conditions: human, C3A cells, read-out: Lethal concentration (LC50)
Experimental: Different concentrations of the compounds ranging from 0.003 to 0.2 mg/mL were tested for cytotoxicity against three cell lines; Vero monkey kidney, C3A and Caco2. Vero cells were grown and maintained in MEM, supplemented with 0.1% gentamicin and 5% foetal calf serum, while Caco2 and C3A cells were grown and maintained in DMEM supplemented with 10% foetal calf serum, 1% non-essential amino acids and 1% penicillin-streptomycin. All cells were incubated in a 5% CO2 incubator at 37 °C. Doxorubicin chloride was used as positive control while 10% DMSO used in dissolving the test samples was used as the negative control. The 3-(4,5-dimethylthiazol)-2,5-diphenyl tetrazolium bromide (MTT) assay described by Mosmann [50] with modification by McGaw et al. [51] was used to determine the cytotoxicity of the test samples. The lethal concentration (LC50) value was calculated as the concentration of tested sample resulting in a 50% reduction of absorbance compared to untreated cells.

[1] = test system: E. coli (B1962/17) isolate from equine urine, E. coli (3); assay: MIC, serial microdilution with INT; format: cell-based; conditions: Escherichia coli, read-out: Minimum inhibitory concentration
Source text: (§1) The cultures used were Escherichia coli (American Type Culture Collection, ATCC 25922) labelled as 1, E. coli isolates (B1989/17 and B1962/17) labelled as 2 and 3 from equine urine, collected from the Department of Veterinary Tropical Diseases, Faculty of Veterinary Science, University of Pretoria, South Africa, Klebsiella pneumoniae isolate from commercial chicken eggs, Enterococcus faecalis (ATCC 29212), Pseudomonas aeruginosa (ATCC 27853), Staphylococcus aureus (ATCC 29213), Candida albicans from a Gouldian finch, Aspergillus fumigatus from a chicken and Cryptococcus neoformans from a cheetah. These microbial strains were maintained on MHA or SDA for bacteria and fungi respectively, while the isolates were maintained on blood agar.
(§2) Ten mg/mL of each fraction and 1 mg/mL of isolated compounds were prepared in 10% DMSO and tested against S. aureus, E. coli, K. pneumoniae, E. faecalis, P. aeruginosa, C. albicans, C. neoformans and A. fumigatus. Cultures were prepared by inoculating each microbial strain from prepared agar plates into sterilized MHB for bacterial and SDB for fungi in sterile McCartney bottles respectively. The inoculums were placed in an orbital shaker incubator. Bacterial strains were incubated at 37 °C for 18 h. Each bacterial culture was diluted in fresh MHB and the absorbance was measured at a wavelength of 560 nm using a microplate reader (Epoch Biotek). The readings were compared to a McFarland standard No. 1 correlating to approximately 3 × 10^8 cfu/mL). For fungi strains, cultures were incubated at 30 °C for 24 h (C. albicans), 72 h (C. neoformans) and 120 h (A. fumigatus) respectively. The resultant cells and spores were washed with sterile normal saline and absorbance was measured at a wavelength of 560 nm and turbidity was adjusted to a McFarland standard 1.This was further diluted in a 1:10 ratio in SDB to a turbidity of 5 × 10^5 cfu/mL. These diluted cultures (bacterial and fungi) were used for the screening following the serial microdilution method of Eloff.

[2] = test system: Staphylococcus aureus (ATCC 29213); assay: MIC, serial microdilution with INT; format: cell-based; conditions: ATCC29213, S. aureus, read-out: Minimum inhibitory concentration
Source text: as §1, §2

[3] = test system: E. coli (B1989/17) isolate from equine urine, E. coli (2); assay: MIC, serial microdilution with INT; format: cell-based; conditions: Escherichia coli, read-out: Minimum inhibitory concentration
Source text: as §1, §2

[4] = test system: Klebsiella pneumoniae isolate from commercial chicken eggs; assay: MIC, serial microdilution with INT; format: cell-based; conditions: K. pneumoniae; for MIC: Klebsiella pneumoniae, read-out: Minimum inhibitory concentration
Source text: as §1, §2

[5] = test system: Escherichia coli (ATCC 25922), E. coli (1); assay: MIC, serial microdilution with INT; format: cell-based; conditions: for MIC: Escherichia coli, ATCC25922, E. coli (1), read-out: Minimum inhibitory concentration
Source text: as §1, §2

[6] = test system: S. aureus, E. coli (1), E. coli (2), E. coli (3), K. pneumoniae; assay: Mean MIC over the bacterial strains; format: cell-based; conditions: mean over the five bacterial strains of Table 3
Source text: as §1, §2

[7] = test system: Aspergillus fumigatus from a chicken; assay: MIC, serial microdilution with INT; format: cell-based; conditions: for MIC: Aspergillus fumigatus, read-out: Minimum inhibitory concentration
Source text: as §1, §2

[8] = test system: Candida albicans from a Gouldian finch; assay: MIC, serial microdilution with INT; format: cell-based; conditions: C. albicans, read-out: Minimum inhibitory concentration
Source text: as §1, §2

[9] = test system: Cryptococcus neoformans from a cheetah; assay: MIC, serial microdilution with INT; format: cell-based; conditions: C. neoformans, read-out: Minimum inhibitory concentration
Source text: as §1, §2

[10] = test system: C. neoformans and A. fumigatus; assay: Mean MIC over the fungal isolates; format: cell-based
Source text: as §1, §2

[11] = test system: selected microbial strains; assay: MIC summarised over the selected microbial strains; format: cell-based; conditions: summary over bacterial and fungal strains
Source text: as §1, with “These microbial strains were maintained on MHA or SDA for bacteria and fungi respectively, while the isolates were maintained on blood agar.” left out
Ten mg/mL of each fraction and 1 mg/mL of isolated compounds were prepared in 10% DMSO and tested against S. aureus, E. coli, K. pneumoniae, E. faecalis, P. aeruginosa, C. albicans, C. neoformans and A. fumigatus. […] Each bacterial culture was diluted in fresh MHB and the absorbance was measured at a wavelength of 560 nm using a microplate reader (Epoch Biotek). The readings were compared to a McFarland standard No. 1 correlating to approximately 3 × 10^8 cfu/mL). […] The resultant cells and spores were washed with sterile normal saline and absorbance was measured at a wavelength of 560 nm and turbidity was adjusted to a McFarland standard 1.This was further diluted in a 1:10 ratio in SDB to a turbidity of 5 × 10^5 cfu/mL. […]

in vitro [12] = assay: in vitro
Experimental: (§3) Different concentrations of the compounds ranging from 0.003 to 0.2 mg/mL were tested for cytotoxicity against three cell lines; Vero monkey kidney, C3A and Caco2. Vero cells were grown and maintained in MEM, supplemented with 0.1% gentamicin and 5% foetal calf serum, while Caco2 and C3A cells were grown and maintained in DMEM supplemented with 10% foetal calf serum, 1% non-essential amino acids and 1% penicillin-streptomycin. All cells were incubated in a 5% CO2 incubator at 37 °C. Doxorubicin chloride was used as positive control while 10% DMSO used in dissolving the test samples was used as the negative control. The 3-(4,5-dimethylthiazol)-2,5-diphenyl tetrazolium bromide (MTT) assay described by Mosmann with modification by McGaw et al. was used to determine the cytotoxicity of the test samples. The lethal concentration (LC50) value was calculated as the concentration of tested sample resulting in a 50% reduction of absorbance compared to untreated cells. Selectivity index (SI) values were calculated against the MIC using the formula: […]

[13] = test system: Enterococcus faecalis (ATCC 29212); assay: MIC, serial microdilution with INT; format: cell-based; conditions: ATCC29212, E. faecalis, read-out: Minimum inhibitory concentration
Source text: as §1, §2

[14] = test system: Pseudomonas aeruginosa (ATCC 27853); assay: MIC, serial microdilution with INT; format: cell-based; conditions: ATCC27853, P. aeruginosa, read-out: Minimum inhibitory concentration
Source text: as §1, §2

in vitro [15] = assay: in vitro; remark: listed apart in the source
Experimental: as §3

Caco2 cells = assay: in vitro; conditions: Caco2
Experimental: as §3

E. coli = test system: E. coli; design: method as in earlier work; conditions: ref [70] Teffo et al.; cited from earlier work
S. aureus = test system: S. aureus; design: method as in earlier work; conditions: ref [70] Teffo et al.; cited from earlier work

For COc1cccc2c1C(=O)c1c(O)c3c(c(O)c1C2=O)C[C@@](O)(C(=O)CO)C[C@@H]3O[C@H]1C[C@H](N)[C@H](O)[C@H](C)O1 [Doxorubicin, Doxorubicin chloride, reference compound], the CC50 (Cytotoxicity, MTT assay) was 3.3 µg/mL.

O=C(O)c1cn(C2CC2)c2cc(N3CCNCC3)c(F)cc2c1=O [Ciprofloxacin, ciprofloxacin, reference compound] gave an MIC [1] of 1 µg/mL (≈ 3.02 µM), an MIC [2] of 63 µg/mL (≈ 190 µM) and an MIC [3] of 0.05 µg/mL (≈ 0.151 µM). For the same compound, the Minimum inhibitory concentration [4] was 50 µg/mL (≈ 151 µM), the MIC [4] was 50 µg/mL (≈ 151 µM) and the MIC [5] was 2 µg/mL (≈ 6.04 µM). The MIC [6] was 20 µg/mL (≈ 60.4 µM).

In the case of C[C@@H]1[C@H](O)[C@@H](C)/C=C/C=C/C=C/C=C/C=C/C=C/C=C/[C@H](O[C@@H]2O[C@H](C)[C@@H](O)[C@H](N)[C@@H]2O)C[C@@H]2O[C@](O)(C[C@@H](O)C[C@@H](O)[C@H](O)CC[C@@H](O)C[C@@H](O)CC(=O)O[C@H]1C)C[C@H](O)[C@H]2C(=O)O [Amphotericin B, amphotericin B, reference compound], the MIC ([7]; 48 h) is reported as 31 µg/mL (≈ 33.5 µM), the MIC ([7]; 72 h) is reported as 63 µg/mL (≈ 68.2 µM) and the MIC ([7]; 120 h) is reported as 125 µg/mL (≈ 135 µM). It also gave an MIC ([8]; 24 h) of 31 µg/mL (≈ 33.5 µM), an MIC ([8]; 48 h) of 63 µg/mL (≈ 68.2 µM) and an MIC ([9]; 72 h, 72 h) of 125 µg/mL (≈ 135 µM). For the same compound, the MIC ([9]; 120 h, 120 h) was 125 µg/mL (≈ 135 µM), the MIC ([10]; all time points of Table 3) was 70 ± 60 µg/mL (≈ 75.8 µM) and the “Mean MIC” value ([10]; all time points of Table 3, listed as Amp B) was 70 µg/mL.

With COc1ccc(-c2cc(=O)c3c(O)c(OC)c(O)cc3o2)cc1 [Compound 1, 5,7-dihydroxy-4′,6-dimethoxy-flavone] the Minimum inhibitory concentration ([7]; 48 h) was “good activity”, the MIC ([7]; 48 h) was 63 µg/mL (≈ 200 µM) and the MIC ([7]; 72 h) was 250 µg/mL (≈ 795 µM). It also gave an MIC ([7]; 120 h) of over 2500 µg/mL, an MIC [1] of over 250 µg/mL and an MIC [2] of 250 µg/mL (≈ 795 µM). It also gave an MIC ([9]; 48 h, 48 h) of over 250 µg/mL, an MIC ([9]; 72 h, 72 h) of over 250 µg/mL and an MIC [3] of over 250 µg/mL. The MIC [4] was 250 µg/mL (≈ 795 µM), the MIC [5] was 250 µg/mL (≈ 795 µM) and the MIC [6] was 250 µg/mL (≈ 795 µM). The “MIC, range or verdict over the strains tested” value [11] was “weak antimicrobial activity”.

Compound CNC(C)C1CCC(N)C(OC2C(N)CC(N)C(OC3OCC(C)(O)C(NC)C3O)C2O)O1 (stereo not shown) [Gentamicin, gentamicin, reference compound] has a CC50 (in vitro [12]) of over 200 µg/mL, an MIC ([7]; 120 h) of over 2500 µg/mL and an MIC [1] of 8 µg/mL (≈ 16.8 µM). The MIC [2] was 8 µg/mL (≈ 16.8 µM), the MIC [13] was 500 µg/mL (≈ 1050 µM) and the MIC [14] was 8 µg/mL (≈ 16.8 µM). It also gave an MIC [3] of 31 µg/mL (≈ 64.9 µM), a Minimum inhibitory concentration [4] of 250 µg/mL (≈ 523 µM) and an MIC [4] of 500 µg/mL (≈ 1050 µM). The Minimum inhibitory concentration ([5]; E. coli (1)) was 16 µg/mL (≈ 33.5 µM), the MIC [5] was 20 µg/mL (≈ 41.9 µM) and the MIC [6] was 60 ± 110 µg/mL (≈ 126 µM). The “Mean MIC” value [6] was 60 µg/mL and the CC50 (in vitro [15]) was over 200 µg/mL.

In the case of COc1ccc(-c2oc3cc(O)cc(O)c3c(=O)c2O)cc1 [Compound 4, 3,5,7-trihydroxy-4′-methoxyflavone], the “Selectivity index (LC50/MIC)” value (Caco2 cells; E. coli (1)) is reported as 1.544, the “Selectivity index (LC50/MIC)” value (Caco2 cells; S. aureus) is reported as 0.772 and the CC50 (in vitro [12]) is reported as 193 µg/mL (≈ 643 µM). It also gave an MIC ([7]; 48 h) of 250 µg/mL (≈ 833 µM), an MIC ([7]; 72 h) of over 250 µg/mL and an MIC ([7]; 120 h) of over 2500 µg/mL. For the same compound, the MIC [1] was over 250 µg/mL, the MIC [2] was 250 µg/mL (≈ 833 µM) and the MIC ([9]; 48 h, 48 h) was over 250 µg/mL. For the same compound, the MIC ([9]; 72 h, 72 h) was over 250 µg/mL, the MIC [3] was over 250 µg/mL and the MIC [4] was over 250 µg/mL. The MIC [5] was 125 µg/mL (≈ 416 µM), the “MIC / antibacterial activity” value (E. coli) was 125 µg/mL (≈ 416 µM) and the CC50 (in vitro [15]) was over 200 µg/mL. For the same compound, the “MIC, range or verdict over the strains tested” value [11] was “weak antimicrobial activity” and the “MIC / antibacterial activity” value (S. aureus) was 250 µg/mL (≈ 833 µM).
